These results are taken from PubChem BioAssay (NCI).

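Values below derive from 48-hour exposures of cells grown in 96-well plates, with endpoints linearly interpolated between the two concentrations bracketing the appropriate inhibition level. GI50 marks 50% less growth. TGI is the concentration that stops growth completely.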

One experiment relates to OVCAR-8 ovarian. The experiment can be described thus: NCI-60 cell line screen, 48 h.
As to `Cc1cn2c(/C=C3\C(=O)Nc4ccc(O)cc43)c(-c3ccc(Cl)cc3)nc2s1`, the GI50 is 18.4 µM and the TGI was over 100 µM.
`CC1=CC(=O)[C@@H](O)[C@]2(C)[C@H]3[C@@]4(O)OC[C@]35[C@H]([C@@H](C)[C@H]4O)[C@@H](O)C(=O)O[C@@H]5C[C@@H]12` returned a TGI of 5.82 µM.
On the same count and under the same terms, then `Nc1nc(N)c(N=Nc2ccc([As](=O)(O)O)cc2)c(=O)[nH]1`, with over 100 µM.
Turning to `CCOC(=O)C(=Cc1cccc(Cl)c1)C(=O)OCC`, the GI50 was 3.37 µM and the TGI stood at 12.8 µM.
Consider `C=CC(=O)N1CCC(C2CCNc3c(C(N)=O)c(-c4ccc(Oc5ccccc5)cc4)nn32)CC1` (centres undefined), for which the GI50 is 16.9 µM and the TGI was found to be 59.2 µM.
Turning to `O=c1cc2oc3cc(O)c(O)cc3c(-c3ccccc3O)c-2cc1O`, the GI50 is 16 µM and the TGI was over 100 µM.

A further experiment deals with SN12C renal. Briefly: NCI-60 cell line screen, 48 h.
In the case of `Nc1nccc2c1ccn2-c1ccc(NC(=O)c2ccc(N3CCOCC3)c(C(F)(F)F)c2)cc1`, the GI50 is 4.86 µM and the TGI was 20.4 µM.
Turning to `Cc1[nH]c2ccccc2c1-c1cc(-c2cc(-c3c(C)[nH]c4ccccc34)on2)no1`, the TGI is over 100 µM.
`Cn1cnc([N+](=O)[O-])c1S(=O)(=O)Oc1ccccc1`: the GI50 was 21.5 µM and the TGI is over 71.7 µM.
Regarding `COc1cc(C2c3cc4c(cc3C(O)C(CO)C2CO)OCO4)cc(OC)c1OC` (centres undefined), the GI50 is 4.94 µM and the TGI was over 100 µM.
Compound `CCCNC(=S)/N=C/c1c(O)c2ccccc2[nH]c1=O` gave a TGI of over 100 µM.
Consider `COC12C=C/C(=C(/C(=O)OCc3ccncc3)C(=O)CCCCCCCCC3(OC)C=C/C(=C(/C(=O)OCc4ccncc4)C(=O)CCCCCCCC1)O3)O2`, for which the GI50 is 0.471 µM and the TGI came out at 3.89 µM.
The like results for `CCOc1ccc2nc(S/C(=C/C=C(C#N)C#N)c3ccc(C)cc3)sc2c1` were, in that order, 18.1 µM and 46.4 µM.
`C1CSCCSCCS1` gave a TGI of over 100 µM.
Take `CCN(CC)CCOc1ccc(/C=C2\CC3C4CC=C5C[C@@H](O)CC[C@]5(C)C4CC[C@]3(C)C2=O)cc1OC` (some centres undefined): the GI50 is 3.54 µM and the TGI was determined as 19.4 µM.
As for `O=c1c2ccccc2sc2cccc(NCCCN3CCN(CCCNc4cccc5sc6ccccc6c(=O)c45)CC3)c12`, the TGI was over 100 µM.
Consider `Cc1cn2c(/C=C3\C(=O)Nc4ccc(O)cc43)c(-c3ccc(Cl)cc3)nc2s1`, for which the GI50 is 10.4 µM and the TGI stood at 25.5 µM.
`Nc1nc(N)c(N=Nc2ccc([As](=O)(O)O)cc2)c(=O)[nH]1` had a TGI of over 100 µM.
Take `CCOC(=O)C(=Cc1cccc(Cl)c1)C(=O)OCC`: the GI50 is 1.65 µM and the TGI was 3.54 µM.
The like results for `C=CC(=O)N1CCC(C2CCNc3c(C(N)=O)c(-c4ccc(Oc5ccccc5)cc4)nn32)CC1` (centres undefined) were, in that order, 13.4 µM and over 100 µM.
The like results for `O=c1cc2oc3cc(O)c(O)cc3c(-c3ccccc3O)c-2cc1O` were, in that order, 10.7 µM and over 100 µM.
For `COc1ccccc1N1CCN(CCCn2c(=O)c3c(OC)nc(C)cc3c(=O)n2-c2ccccc2)CC1`, the GI50 was over 100 µM and the TGI is over 100 µM.
In turn, `N#Cc1c(-c2ccc(F)cc2)c(-c2ccc(F)cc2)nn(CCO)c1=O` yielded a TGI of over 100 µM.

A further experiment concerns PC-3 prostate. The experiment can be described thus: NCI-60 cell line screen, 48 h.
Regarding `Nc1nccc2c1ccn2-c1ccc(NC(=O)c2ccc(N3CCOCC3)c(C(F)(F)F)c2)cc1`, the GI50 was 0.499 µM and the TGI worked out at 17.4 µM.
The compound `Cc1[nH]c2ccccc2c1-c1cc(-c2cc(-c3c(C)[nH]c4ccccc34)on2)no1` yielded a TGI of over 100 µM.
For the compound `Cn1cnc([N+](=O)[O-])c1S(=O)(=O)Oc1ccccc1`, the GI50 was 20.6 µM and the TGI is 62 µM.
The like results for `COc1cc(C2c3cc4c(cc3C(O)C(CO)C2CO)OCO4)cc(OC)c1OC` (centres undefined) were, in that order, 0.596 µM and over 100 µM.
As to `CCCNC(=S)/N=C/c1c(O)c2ccccc2[nH]c1=O`, the TGI is over 100 µM.
`COC12C=C/C(=C(/C(=O)OCc3ccncc3)C(=O)CCCCCCCCC3(OC)C=C/C(=C(/C(=O)OCc4ccncc4)C(=O)CCCCCCCC1)O3)O2`: the GI50 is 0.761 µM and the TGI came out at 2.67 µM.
The like results for `CCOc1ccc2nc(S/C(=C/C=C(C#N)C#N)c3ccc(C)cc3)sc2c1` were, in that order, 33.9 µM and over 100 µM.
In the case of `Cc1csc(Nc2nc(-c3cccc(Br)c3)nc(C(Cl)(Cl)Cl)n2)n1`, the GI50 is 1.92 µM and the TGI is over 100 µM.
As to `C1CSCCSCCS1`, the TGI was over 100 µM.
Turning to `CCN(CC)CCOc1ccc(/C=C2\CC3C4CC=C5C[C@@H](O)CC[C@]5(C)C4CC[C@]3(C)C2=O)cc1OC` (some centres undefined), the GI50 was 3.48 µM and the TGI is over 39.1 µM.
Compound `O=c1c2ccccc2sc2cccc(NCCCN3CCN(CCCNc4cccc5sc6ccccc6c(=O)c45)CC3)c12` registered a TGI of over 100 µM.
Consider `Cc1cn2c(/C=C3\C(=O)Nc4ccc(O)cc43)c(-c3ccc(Cl)cc3)nc2s1`, for which the GI50 was 22.2 µM and the TGI is over 100 µM.
Compound `CC1=CC(=O)[C@@H](O)[C@]2(C)[C@H]3[C@@]4(O)OC[C@]35[C@H]([C@@H](C)[C@H]4O)[C@@H](O)C(=O)O[C@@H]5C[C@@H]12` gave a TGI of 1.67 µM.
In the case of `Nc1nc(N)c(N=Nc2ccc([As](=O)(O)O)cc2)c(=O)[nH]1`, the TGI was over 100 µM.
On to `CCOC(=O)C(=Cc1cccc(Cl)c1)C(=O)OCC`, for which the GI50 was 2.05 µM and the TGI came out at 4.21 µM.
The like results for `C=CC(=O)N1CCC(C2CCNc3c(C(N)=O)c(-c4ccc(Oc5ccccc5)cc4)nn32)CC1` (centres undefined) were, in that order, 22 µM and 69.6 µM.
The like results for `O=c1cc2oc3cc(O)c(O)cc3c(-c3ccccc3O)c-2cc1O` were, in that order, 36.1 µM and over 100 µM.
The like results for `COc1ccccc1N1CCN(CCCn2c(=O)c3c(OC)nc(C)cc3c(=O)n2-c2ccccc2)CC1` were, in that order, over 100 µM and over 100 µM.
For the compound `N#Cc1c(-c2ccc(F)cc2)c(-c2ccc(F)cc2)nn(CCO)c1=O`, the TGI stood at 54.7 µM.
